As usually defined, the inhibition is the relative decrease from the control value, in per cent.

Series [1] has as its system adrenergic receptors α1D, α2A, α2B; serotonin receptor 5-HT6; dopamine receptor D2L. In words: Classification of compounds (Type 1-4) from receptor binding and neurite outgrowth. From the text:
Compounds of the invention that inhibit binding of a ligand to adrenergic receptors α1D, α2A, α2B and serotonin receptor 5-HT6 by at least about 80% as determined in a suitable assay such as the assays described herein can be classified as Type 1 compounds. […] In one variation, binding of a ligand to serotonin receptor 5-HT7 is at least about 80%. […] Weak inhibition of binding of a ligand to the histamine H1 receptor is permitted as agonists of this receptor have been implicated in stimulating memory as well as weight gain. In one variation, binding to histamine receptor H1 is inhibited by less than about 80%. […] Compounds that inhibit binding of a ligand to the dopamine D2L receptor by at least about 80% as determined in a suitable assay such as the assay described herein can be classified as Type 2 compounds.
In one variation, Type 1 compounds further inhibit binding of a ligand to dopamine receptor D2L by less than about 80% as determined in a suitable assay known in the art such as the assay described herein. […] In one variation, binding of a ligand to serotonin receptor 5-HT7, 5-HT2A and/or 5-HT2C is inhibited by at least about 80% as determined in a suitable assay such as the assays described herein. […] In one variation, binding of a ligand to histamine receptor H1 and/or H2 is inhibited by less than about 80% as determined by a suitable assay known in the art such as the assays described herein.
In one variation, biding to serotonin receptor 5-HT2A is inhibited by at least about 80% as determined in a suitable assay know in the art such as the assay described herein.

The test system of series [2] is synaptosomes of cortex of rat brain. In words: Glutamate-induced 45Ca2+ uptake into synaptosomes. It counts as biochemical, Wistar rats. The conditions noted are these: for % Ca of control (control-100%), glutamate-induced 45Ca2+ uptake into synaptosomes: rat cortex synaptosomes. The gist of the method: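 Cortical synaptosomes (P2 fraction) from 9-10-day-old Wistar rats, ~1.5-2 mg/ml protein in HEPES-buffered saline with glucose, pH 7.4, stimulated 5 min with 200 μM glutamate at 37° C. 45Ca2+ uptake measured by filtration and scintillation counting; specific uptake with compound expressed as percentage of glutamate-induced uptake, each corrected for unstimulated uptake.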

The subject of a further series is rat brain mitochondria. Nature of the series: Mitochondrial membrane potential (safranine test). The following applies: suggested from membrane potential and calcium retention data (Table 15). It counts as biochemical, Wistar rats. As for the experimental part: The same experimental conditions were used for the assessment of alterations of the mitochondrial membrane potential, except that safranine was included in incubation medium at a final concentration of 10 mkM and succinate was added before the compounds of the invention. This concentration of safranine was determined before hand as the optimal compromise between signal/baseline ratio and interference of safranine itself with swelling induced by Ca/Pi (safranine tended to enhance Ca/Pi-induced swelling at concentrations above 20 mkM). Changes in the status of the mPT pore were assessed spectrophotometrically at 554 and 524 nm in a cuvette in a Beckman DU 640 spectrophotometer. A554-524 represents the characteristics of mitochondrial potential and A554-characteristics of mitochondrial swelling.

In series [3] the target is T1, human recombinant dopamine D2L receptor (Homo sapiens, UniProt P14416).
T1 construct: expressed in transfected cells; host or cells: CHO cells
T1 sequence (P14416 whole entry): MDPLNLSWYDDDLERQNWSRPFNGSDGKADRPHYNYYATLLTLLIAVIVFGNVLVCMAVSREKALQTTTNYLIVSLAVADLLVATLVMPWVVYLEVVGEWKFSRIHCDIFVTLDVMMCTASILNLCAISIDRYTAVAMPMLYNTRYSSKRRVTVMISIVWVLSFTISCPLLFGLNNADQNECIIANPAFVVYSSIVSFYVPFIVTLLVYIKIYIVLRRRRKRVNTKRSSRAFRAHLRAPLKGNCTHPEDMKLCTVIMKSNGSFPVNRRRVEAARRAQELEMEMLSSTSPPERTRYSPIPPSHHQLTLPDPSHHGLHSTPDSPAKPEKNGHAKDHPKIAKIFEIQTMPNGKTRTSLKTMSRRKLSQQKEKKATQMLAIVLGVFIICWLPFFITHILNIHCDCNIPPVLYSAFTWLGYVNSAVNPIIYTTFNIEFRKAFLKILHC
Nature of the series: Dopamine D2L antagonist activity ([35S]GTPγS binding, SPA). It counts as biochemical. The conditions noted are these: for Antagonist Activity As Measured by % Inhibition D2L / inhibition at 0.03 µM / inhibition at 0.1 µM / inhibition at 0.3 µM: two values = assay run twice; for inhibition at 0.03 µM / inhibition at 0.1 µM / inhibition at 0.3 µM / inhibition at 1 µM / inhibition at 3 µM: read-out: Antagonist Activity As Measured by % Inhibition D2L. As for the experimental part:
To determine for agonist or antagonist activity of compounds of the invention in functional assays, human recombinant dopamine D2L receptor stably expressed in Chinese hamster ovary (CHO) cells (Senogles S E et al. J Biol Chem. 265(8): 4507, 1990) was used. Compounds of invention were pre-incubated with the membranes (0.1 mg/ml) and […] in modified HEPES buffer (20 mM HEPES, pH 7.4, 100 mM NaCl, 10 mM MgCl2, 1 mM DTT, 1 mM EDTA) for 20 minutes and Scintillation Proximity Assay (SPA) beads were added for another 60 minutes at 30° C. The reaction was initiated by 0.3 nM [^35S]GTPγS for an additional 15 minute incubation period. […] Compounds were screened at 3 μM or lower, using 0.4% DMSO as vehicle. Assay results are presented as the percent response of specific binding in Table 8.
For orientation: GTPγS resists hydrolysis and so accumulates on activated G proteins.

Where “and” joins values, the source holds several entries; their conditions need not be identical. Equal entries are not always repeated.

Turning to `CN1CCc2c(c3cc(I)ccc3n2CCc2ccccc2F)C1` [Compound 89, 5-(2-fluorophenethyl)-2,3,4,5-tetrahydro-8-iodo-2-methyl-1H-pyrido[4,3-b]indole], the “compound type (classification by receptor binding profile and neurite outgrowth)” value (“compound type” for short) in series [1] is listed as “Type one”.

`Cc1ccc2c(c1)c1c(n2CCc2nc(-c3ccccc3)cs2)CCN(C)C1` [Compound C1-5]: in series [2] (0.5 μM), the “inhibition of glutamate-induced 45Ca2+ uptake into synaptosomes” value is listed as “about 22.5%”. In series [2] (C 100 μM), the “glutamate-induced 45Ca2+ uptake into synaptosomes of rat cortex, % Ca of control (control-100%)” value is given as 130%. Besides, the “% Ca of control (control-100%), glutamate-induced 45Ca2+ uptake into synaptosomes” value in series [2] (compound 0.1 μM) came out at 96.3 ± 5.6%; in series [2] (compound 0.5 μM), 77.5 ± 0.8%; in series [2] (compound 1 μM) it was 94 ± 3.4%; in series [2] (compound 5 μM), 96 ± 1.5%; in series [2] (compound 10 μM), 117.2 ± 1.3%; in series [2] (compound 50 μM), 115.4 ± 4.8%. Moreover, in series [2] (compound 100 μM), the “% Ca of control (control-100%), glutamate-induced 45Ca2+ uptake into synaptosomes” value was determined as 30.1 ± 7.4%. Also, the “impairment of mitochondrial respiratory functions accompanying inhibition of MPT” value in the series with rat brain mitochondria is “impairment of mitochondrial respiratory functions”.

For `Cc1ccc(CCn2c3c(c4cc(Br)ccc42)CN(C)CC3)cn1` [Compound 487, 8-bromo-2-methyl-5-(2-(6-methylpyridin-3-yl)ethyl)-2,3,4,5-tetrahydro-1H-pyrido[4,3-b]indole], the “compound type” value in series [1] is “Type one”.

Regarding `CN1CCc2c(c3cc(F)ccc3n2CCc2nc(-c3ccccc3)cs2)C1` [Compound C1-7], the “concentration at which glutamate-induced 45Ca2+ uptake into synaptosomes was increased” value in series [2] lay in the range of 5 to 100 µM. Besides, the “inhibition of glutamate-induced 45Ca2+ uptake into synaptosomes” value in series [2] (0.1-0.5 μM) is roughly 27.3%. The “glutamate-induced 45Ca2+ uptake into synaptosomes of rat cortex, % Ca of control (control-100%)” value in series [2] (C 100 μM) was 139.8%. In addition, the “% Ca of control (control-100%), glutamate-induced 45Ca2+ uptake into synaptosomes” value in series [2] (compound 0.1 μM) worked out at 77.5 ± 2.4%; in series [2] (compound 0.5 μM), 72.7 ± 0.3%; in series [2] (compound 1 μM) it was 98.6 ± 2.4%; in series [2] (compound 5 μM), 131.8 ± 8.8%; in series [2] (compound 10 μM), 134.5 ± 9.2%; in series [2] (compound 50 μM) it was 126.7 ± 7.7%. In addition, the “% Ca of control (control-100%), glutamate-induced 45Ca2+ uptake into synaptosomes” value in series [2] (compound 100 μM) was 139.8 ± 6.5%.

As to `COc1ccc(CCn2c3c(c4cc(C)ccc42)CN(C)CC3)cc1` [Compound 247], in series [3] (0.03 uM), the “Antagonist Activity As Measured by % Inhibition D2L” value came out at 52% and the inhibition at 0.03 µM was 48%. The inhibition at 0.1 µM in series [3] (0.1 uM) came out at 66%. In series [3] (0.3 uM), the “Antagonist Activity As Measured by % Inhibition D2L” value is 83% and the inhibition at 0.3 µM is 81%. In series [3], the inhibition at 1 µM turned out to be 89% and the inhibition at 3 µM was determined as 91%.

On to `Cc1ccc2c(c1)c1c(n2CCc2noc(-c3ccccc3)n2)CCN(C)C1` [Compound C4-4], for which, in series [2], the “concentration at which glutamate-induced 45Ca2+ uptake into synaptosomes was increased” value was in the range of 50 to 100 µM. Moreover, the “concentration at which glutamate-induced 45Ca2+ uptake into synaptosomes was inhibited” value in series [2] is 0.5 µM. In addition, the “inhibition of glutamate-induced 45Ca2+ uptake into synaptosomes” value in series [2] (1 μM (maximal inhibition)) was 20.5%. Besides, the “glutamate-induced 45Ca2+ uptake into synaptosomes of rat cortex, % Ca of control (control-100%)” value in series [2] (C 0.1 μM) came to 111.2 ± 9.2%; in series [2] (C 0.5 μM), 81.8 ± 14%; in series [2] (C 1.0 μM) it was 79.5 ± 11.1%; in series [2] (C 5.0 μM) it was 97.9 ± 4.3%; in series [2] (C 10 μM), 99.9 ± 11.7%; in series [2] (C 25 μM) it was 93.6 ± 15.7%. The “glutamate-induced 45Ca2+ uptake into synaptosomes of rat cortex, % Ca of control (control-100%)” value is listed as 137.5 ± 5.4% in series [2] (C 50 μM) and 125.3 ± 11.2% in series [2] (C 100 μM). For the same compound, the “impairment of mitochondrial respiratory functions accompanying inhibition of MPT” value with rat brain mitochondria is “impairment of mitochondrial respiratory functions”.

As for `CCOc1ccc(CCn2c3c(c4cc(C)ccc42)CN(C)CC3)cc1` [Compound 334, 5-[2-(4-Ethoxy-phenyl)-ethyl]-2,8-dimethyl-2,3,4,5-tetrahydro-1H-pyrido[4,3-b]indole], in series [1], the “compound type” value is “Type one”.

Turning to `CN1CCc2c(c3cc(Cl)ccc3n2CCc2noc(-c3ccccc3)n2)C1` [Compound C4-6], the “concentration at which glutamate-induced 45Ca2+ uptake into synaptosomes was increased” value in series [2] was in the range of 50 to 100 µM. The “concentration at which glutamate-induced 45Ca2+ uptake into synaptosomes was inhibited” value in series [2] lay within 5 to 10 µM. In addition, in series [2] (C 100 μM), the “glutamate-induced 45Ca2+ uptake into synaptosomes of rat cortex, % Ca of control (control-100%)” value was 152.2%. Further, the “% Ca of control (control-100%), glutamate-induced 45Ca2+ uptake into synaptosomes” value in series [2] (compound 0.1 μM) worked out at 103.6 ± 11.4%; in series [2] (compound 0.5 μM) it was 96.9 ± 11.9%; in series [2] (compound 1 μM), 105.5 ± 5.2%; in series [2] (compound 5 μM), 86.5 ± 6.1%; in series [2] (compound 10 μM) it was 88.6 ± 2.8%; in series [2] (compound 50 μM), 122.1 ± 8.5%. Also, the “% Ca of control (control-100%), glutamate-induced 45Ca2+ uptake into synaptosomes” value in series [2] (compound 100 μM) was 152.0 ± 6.7%. Further, the “impairment of mitochondrial respiratory functions accompanying inhibition of MPT” value in the series on rat brain mitochondria was “impairment of mitochondrial respiratory functions”.

Turning to `CN1CCc2c(c3cc(Cl)ccc3n2CCc2ccccc2)C1` [Compound 36, 8-chloro-2,3,4,5-tetrahydro-2-methyl-5-phenethyl-1H-pyrido[4,3-b]indole], in series [3] (0.03 uM), the “Antagonist Activity As Measured by % Inhibition D2L” value is 43% and the inhibition at 0.03 µM was found to be 48%. In addition, in series [3] (0.1 uM), the “Antagonist Activity As Measured by % Inhibition D2L” value is given as 57% and the inhibition at 0.1 µM amounted to 73%. In series [3] (0.3 uM), the “Antagonist Activity As Measured by % Inhibition D2L” value came out at 88% and the inhibition at 0.3 µM came out at 83%. For the same compound, in series [3], the inhibition at 1 µM amounted to 85% and the inhibition at 3 µM is 104%.

Consider `CN1CCc2c(c3ccccc3n2CCc2noc(-c3ccccc3)n2)C1` [Compound C4-1], for which the “inhibition of glutamate-induced 45Ca2+ uptake into synaptosomes” value in series [2] (0.1-0.5 μM) is given as “about 20%”. The “glutamate-induced 45Ca2+ uptake into synaptosomes of rat cortex, % Ca of control (control-100%)” value is 79.4 ± 6.1% in series [2] (C 0.1 μM); 79.2 ± 10% in series [2] (C 0.5 μM); 106.1 ± 7.9% in series [2] (C 1.0 μM); 128% and 128 ± 4.5% in series [2] (C 5.0 μM); 107.6 ± 3.5% in series [2] (C 10 μM); 114.3 ± 0.5% in series [2] (C 25 μM). Also, the “glutamate-induced 45Ca2+ uptake into synaptosomes of rat cortex, % Ca of control (control-100%)” value in series [2] (C 50 μM) was determined as 110.1 ± 5.1%; in series [2] (C 100 μM) it was 115.9 ± 8.8%. For the same compound, in the series with rat brain mitochondria, the “impairment of mitochondrial respiratory functions accompanying inhibition of MPT” value was “impairment of mitochondrial respiratory functions”.
